Assay [1] has as its system PA-1. The assay can be described thus: Antiproliferative activity against human PA1 cells by MTT assay. Type of assay: functional, cell-based.
The subject of assay [2] is P388. Briefly: Effect on interstrand cross linking in DNA in mouse P388 cells at 1 uM. In kind it is functional.
Assay [3] has as its system A549. The assay can be described thus: Cell cycle arrest in human A549 cells assessed as accumulation at S phase at 6.25 uM after 48 hrs. In kind it is functional.
Assay [4] has as its system Jurkat. Briefly: Cytotoxicity against human Jurkat cells after 72 hrs by Trypan blue assay. Type of assay: functional.
For assay [5], the system named is Jurkat. The assay can be described thus: Cell cycle arrest in human Jurkat cells assessed as accumulation at G2/M phase at 25 uM after 48 hrs. In kind it is functional.
Assay [6] concerns A549. Briefly: Cell cycle arrest in human A549 cells assessed as accumulation at G0/G1 phase at 6.25 uM after 48 hrs. In kind it is functional.
Assay [7] concerns MDA-MB-231. The assay can be described thus: Induction of apoptosis in human MDA-MB-231 cells by DAPI assay. In kind it is functional.
Assay [8] has as its system Jurkat. Briefly: Cell cycle arrest in human Jurkat cells assessed as accumulation at S phase at 1.56 uM after 48 hrs. Type of assay: functional.
In assay [9] the test system is A549. The assay can be described thus: Cell cycle arrest in human A549 cells assessed as accumulation at S phase at 1.56 uM after 48 hrs. In kind it is functional.
The subject of assay [10] is Jurkat. Briefly: Cell cycle arrest in human Jurkat cells assessed as accumulation at G0/G1 phase at 1.56 uM after 48 hrs. In kind it is functional.
Assay [11] has as its system A549. The assay can be described thus: Cell cycle arrest in human A549 cells assessed as accumulation at S phase at 25 uM after 48 hrs. Type of assay: functional.
The subject of assay [12] is Jurkat. Briefly: Cell cycle arrest in human Jurkat cells assessed as accumulation at G2/M phase at 6.25 uM after 48 hrs. In kind it is functional.
Assay [13] deals with A549. The assay can be described thus: Cell cycle arrest in human A549 cells assessed as accumulation at G0/G1 phase at 25 uM after 48 hrs. Type of assay: functional.
In assay [14] the test system is Jurkat. The assay can be described thus: Antiproliferative activity against human Jurkat cells by MTT assay. In kind it is functional, cell-based. On the technique in general: Tetrazolium assays rely on reduction of a dye to a coloured formazan, in cell work by metabolically active cells.
In assay [15] the test system is Jurkat. The assay can be described thus: Induction of apoptosis in human Jurkat cells by DAPI assay. Type of assay: functional.
Assay [16] concerns HGC-27. The assay can be described thus: Cytotoxicity against human HGC27 cells after 72 hrs by Trypan blue assay. Type of assay: functional.
In assay [17] the test system is MDA-MB-231. Briefly: Stimulation of p53 oncoprotein expression in human MDA-MB-231 cells at 0.9 uM. In kind it is functional.
The subject of assay [18] is A549. Briefly: Cell cycle arrest in human A549 cells assessed as accumulation at G2/M phase at 25 uM after 48 hrs. In kind it is functional.
The test system of assay [19] is A2780. The assay can be described thus: Induction of apoptosis in human A2780 cells by DAPI assay. Type of assay: functional.
Assay [20] deals with A549. The assay can be described thus: Cell cycle arrest in human A549 cells assessed as accumulation at G2/M phase at 6.25 uM after 48 hrs. Type of assay: functional.
For a further assay, the system named is NCI-H1299. The assay can be described thus: Induction of apoptosis in human H1299 cells by DAPI assay. In kind it is functional.
The subject of assay [21] is P388. Briefly: Cytotoxicity against mouse P388 cells after 72 hrs by Trypan blue assay. In kind it is functional.
The test system of assay [22] is P388. The assay can be described thus: Induction of apoptosis in mouse P388 cells by DAPI assay. Type of assay: functional.
Assay [23] concerns MDA-MB-231. The assay can be described thus: Cytotoxicity against human MDA-MB-231 cells after 72 hrs by Trypan blue assay. In kind it is functional.
Assay [24] relates to P388. Briefly: Antiproliferative activity against mouse P388 cells by MTT assay. Type of assay: functional, cell-based.
Assay [25] has as its system HCT-8. The assay can be described thus: Antiproliferative activity against human HCT8 cells by MTT assay. Type of assay: functional, cell-based.
Assay [26] concerns A549. The assay can be described thus: Cell cycle arrest in human A549 cells assessed as accumulation at G2/M phase at 1.56 uM after 48 hrs. In kind it is functional.
For assay [27], the system named is A549. Briefly: Cytotoxicity against human A549 cells after 72 hrs by Trypan blue assay. In kind it is functional.
Assay [28] relates to PA-1. Briefly: Induction of apoptosis in human PA1 cells by DAPI assay. Type of assay: functional.
In assay [29] the test system is Jurkat. The assay can be described thus: Cell cycle arrest in human Jurkat cells assessed as accumulation at G0/G1 phase at 6.25 uM after 48 hrs. Type of assay: functional.
Assay [30] relates to A2780. The assay can be described thus: Cytotoxicity against human A2780 cells after 72 hrs by Trypan blue assay. Type of assay: functional.
The subject of assay [31] is P388. Briefly: Effect on interstrand cross linking in DNA in mouse P388 cells at 0.1 uM. In kind it is functional.
For assay [32], the system named is PA-1. Briefly: Stimulation of p53 oncoprotein expression in human PA1 cells at 1.6 uM. Type of assay: functional.
Assay [33] concerns Jurkat. The assay can be described thus: Cell cycle arrest in human Jurkat cells assessed as accumulation at S phase at 6.25 uM after 48 hrs. Type of assay: functional.
The subject of assay [34] is HGC-27. The assay can be described thus: Induction of apoptosis in human HGC27 cells by DAPI assay. In kind it is functional.
For assay [35], the system named is Jurkat. Briefly: Cell cycle arrest in human Jurkat cells assessed as accumulation at G2/M phase at 1.56 uM after 48 hrs. Type of assay: functional.
For assay [36], the system named is A549. The assay can be described thus: Cell cycle arrest in human A549 cells assessed as accumulation at G0/G1 phase at 1.56 uM after 48 hrs. In kind it is functional.
The test system of assay [37] is A2780. Briefly: Antiproliferative activity against human A2780 cells by MTT assay. In kind it is functional, cell-based.
Assay [38] relates to Jurkat. The assay can be described thus: Cell cycle arrest in human Jurkat cells assessed as accumulation at S phase at 25 uM after 48 hrs. Type of assay: functional.
Assay [39] has as its system PA-1. Briefly: Cytotoxicity against human PA1 cells after 72 hrs by Trypan blue assay. Type of assay: functional.
Assay [40] relates to A549. The assay can be described thus: Antiproliferative activity against human A549 cells by MTT assay. Type of assay: functional, cell-based.
Assay [41] concerns HCT-8. Briefly: Induction of apoptosis in human HCT8 cells by DAPI assay. In kind it is functional.
Assay [42] concerns HCT-8. The assay can be described thus: Cytotoxicity against human HCT8 cells after 72 hrs by Trypan blue assay. In kind it is functional.
Assay [43] is described as follows: Antiproliferative activity against human H1299 cells by MTT assay. Particulars: NCI-H1299. Type of assay: functional, cell-based.
Assay [44] deals with Jurkat. Briefly: Cell cycle arrest in human Jurkat cells assessed as accumulation at G0/G1 phase at 25 uM after 48 hrs. Type of assay: functional.
The test system of assay [45] is A549. Briefly: Stimulation of p53 oncoprotein expression in human A549 cells at 6 uM after 72 hrs. In kind it is functional.
Assay [46] deals with MDA-MB-231. Briefly: Antiproliferative activity against human MDA-MB-231 cells by MTT assay. Type of assay: functional, cell-based.
Assay [47] has as its system HGC-27. Briefly: Antiproliferative activity against human HGC27 cells by MTT assay. Type of assay: functional, cell-based.
Assay [48] deals with A549. Briefly: Induction of apoptosis in human A549 cells by DAPI assay. Type of assay: functional.
Assay [49] is described as follows: Cytotoxicity against human H1299 cells after 72 hrs by Trypan blue assay. In kind it is functional, NCI-H1299.

As for `COC(=O)/C(=C/C(=C\c1cccc2ccccc12)[N+](=O)[O-])SC`, the concentration for half-maximal inhibition (IC50) in the assay on PA-1 [1] worked out at 1.6 µM; with Jurkat [14] it was 3.2 µM; in the assay on P388 [24], 1.4 µM; with HCT-8 [25] it was 12.7 µM; with A2780 [37] it was 2.1 µM; with A549 [40] it was 6 µM. Besides, the half-maximal inhibitory concentration (IC50) in assay [43] came out at 2.8 µM; in the assay on MDA-MB-231 [46], 0.9 µM; with HGC-27 [47] it was 2.1 µM. For the same compound, the Activity in the assay on P388 [2] is given as 3.5%; with A549 [3] it was 33%; with Jurkat [4] it was 67%; in the assay on Jurkat [5] it was 26.4%; in the assay with A549 [6] it was 49%; in the assay on MDA-MB-231 [7] it was 4%. The Activity with Jurkat [8] amounted to 50.3%; in the assay on A549 [9], 36.9%; with Jurkat [10], 31.1%; in the assay on A549 [11] it was 22.5%; in the assay on Jurkat [12] it was 20.4%; in the assay on A549 [13], 41.2%. The Activity with Jurkat [15] was determined as 14%; in the assay with HGC-27 [16] it was 21%; in the assay with MDA-MB-231 [17], 2%; with A549 [18], 36.5%; with A2780 [19], 25%; in the assay with A549 [20], 18%. Further, the Activity with NCI-H1299 amounted to 2%; in the assay on P388 [21], 75%; in the assay on P388 [22], 27%; in the assay on MDA-MB-231 [23] it was 16%; in the assay on A549 [26] it was 16.6%; with A549 [27], 46%. Besides, the Activity with PA-1 [28] was determined as 11%; in the assay on Jurkat [29] it was 41.3%; in the assay with A2780 [30] it was 55%; in the assay on P388 [31] it was 1.7%; in the assay with PA-1 [32] it was 2%; with Jurkat [33], 38.3%. The Activity is recorded as 7% in the assay with HGC-27 [34]; 18.6% in the assay on Jurkat [35]; 46.5% in the assay with A549 [36]; 22.4% in the assay on Jurkat [38]; 22% in the assay with PA-1 [39]; 5% with HCT-8 [41]. Also, the Activity is on record as 10% with HCT-8 [42]; 51.2% in the assay on Jurkat [44]; 2% with A549 [45]; 60% with A549 [48]; 14% in assay [49].
For the compound `O=[N+]([O-])C(=C/c1cccc2ccccc12)/C(=C\c1cccc2ccccc12)[N+](=O)[O-]`, the IC50 was determined as 3.6 µM in the assay on PA-1 [1]; 2.8 µM in the assay with Jurkat [14]; 2.1 µM in the assay on P388 [24]; 9.8 µM with HCT-8 [25]; 2 µM with A2780 [37]; 14.3 µM in the assay on A549 [40]. In addition, the results for the IC50 in the assay with MDA-MB-231 [46] and in the assay on HGC-27 [47] were 9.3 µM and 9 µM, respectively.
In the case of `O=C(O)c1ccc(/C=C(\C(=C/c2ccc(C(=O)O)c3ccccc23)[N+](=O)[O-])[N+](=O)[O-])c2ccccc12`, the IC50 was 129 µM in the assay on PA-1 [1], 172 µM with Jurkat [14], 145 µM in the assay with P388 [24] and 360 µM with A2780 [37].

One may read the IC50 as the concentration at which inhibition is half-maximal. Read a low IC50 as inhibition by little substance.
